Our source for the relative viability values is the supplement of paper PMC10307832.

Common to all, as to assay: relative viability (nuclei count vs DMSO), 5 days (fraction); higher = more cells survive
Compound in the assay “4EGI-1 + Linsitinib”: O=C(O)C(Cc1ccccc1[N+](=O)[O-])=NNc1nc(-c2ccc(Cl)c(Cl)c2)cs1 (mixture of isomers) [4EGI-1] + C[C@]1(O)C[C@@H](c2nc(-c3ccc4ccc(-c5ccccc5)nc4c3)c3c(N)nccn32)C1 [Linsitinib] (partner 1 µM)
The method in brief: (§1)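 Lung cancer cell lines in 1536-well plates were dosed by pin tool the day after seeding, either with one drug alone or with a fixed anchor-drug dose plus five library-drug doses (not always all listed) in √10 steps. After 5 days, cells were fixed and their nuclei stained in one step (final 0.05% Triton X-100, 1% formaldehyde, 1 ug/ml Hoechst), then counted on 4× images. Relative viability is the nuclei count in treated wells divided by that in vehicle wells. Values are medians of duplicate plates.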

Compound in the assay “4EGI-1 + Bortezomib”: O=C(O)C(Cc1ccccc1[N+](=O)[O-])=NNc1nc(-c2ccc(Cl)c(Cl)c2)cs1 (mixture of isomers) [4EGI-1] + CC(C)C[C@H](NC(=O)[C@H](Cc1ccccc1)NC(=O)c1cnccn1)B(O)O [Bortezomib] (partner 0.002 µM)
The method in brief:
as §1

Compound in the assay “4EGI-1 + Lapatinib”: O=C(O)C(Cc1ccccc1[N+](=O)[O-])=NNc1nc(-c2ccc(Cl)c(Cl)c2)cs1 (mixture of isomers) [4EGI-1] + CS(=O)(=O)CCNCc1ccc(-c2ccc3ncnc(Nc4ccc(OCc5cccc(F)c5)c(Cl)c4)c3c2)o1 [Lapatinib] (partner 2 µM)
The method in brief: as §1

Compound in the assay “XMD8-85 + Luminespib”: CN1CCN(CC1)C2=CC(=C(C=C2)NC3=NC=C4C(=N3)N(C5=CC=CC=C5C(=O)N4C)C)OC [XMD8-85] + CCNC(=O)c1noc(-c2cc(C(C)C)c(O)cc2O)c1-c1ccc(CN2CCOCC2)cc1 [Luminespib] (partner 0.01 µM)
The method in brief: as §1

Regarding NCI-H1792, the relative viability with 4EGI-1 + Linsitinib (first compound 0.5 µM) was determined as 0.613; with 4EGI-1 + Linsitinib (first compound 1.581 µM) it was 0.444; with 4EGI-1 + Linsitinib (first compound 5 µM), 0.48; with 4EGI-1 + Linsitinib (first compound 15.81 µM), 0.441; with 4EGI-1 + Linsitinib (first compound 50 µM), 0.472; with 4EGI-1 + Bortezomib (first compound 0.5 µM), 0.916. Further, the relative viability with 4EGI-1 + Bortezomib (first compound 1.581 µM) worked out at 0.392; in the assay with 4EGI-1 + Bortezomib (first compound 5 µM), 0.933; with 4EGI-1 + Bortezomib (first compound 15.81 µM), 0.89; in the assay with 4EGI-1 + Bortezomib (first compound 50 µM), 0.904; in the assay with 4EGI-1 + Lapatinib (first compound 0.5 µM), 0.84; with 4EGI-1 + Lapatinib (first compound 1.581 µM), 0.864. In addition, the relative viability amounted to 0.899 with 4EGI-1 + Lapatinib (first compound 5 µM); 0.816 with 4EGI-1 + Lapatinib (first compound 15.81 µM); 0.557 with 4EGI-1 + Lapatinib (first compound 50 µM); 0.504 with XMD8-85 + Luminespib (first compound 0.253 µM); 0.371 in the assay with XMD8-85 + Luminespib (first compound 2.53 µM); 0.35 in the assay with XMD8-85 + Luminespib (first compound 8 µM).
